Measured values reported in patent publication US5198445A, “Composition and use of substituted 3-thio-2-propynenitriles as industrial antimicrobials” (The Dow Chemical Company, priority 1992, dated 1993).
Converted amounts (≈) assume the structure as drawn. Like-named read-outs stand apart in the source and are kept apart here.

How the values were obtained:
Bacillus subtilis (Bs) = assay: MIC in nutrient agar, Bacillus subtilis; type: cell-based, Bacillus subtilis ATCC 8473; conditions: Bacillus subtilis
Procedure: (§1) The minimum inhibitory concentration (MIC) for the compounds listed in Table I is determined for 9 bacteria, using nutrient agar, and 7 yeast and fungi, using malt yeast agar. A one percent solution of the test compound is prepared in a mixture of acetone and water. Nutrient agar is prepared at pH 6.8, representing a neutral medium, and at pH 8.2, representing an alkaline medium. The nutrient agars are prepared by adding 23 g of nutrient agar to one-liter of deionized water. In addition, the alkaline medium is prepared by adjusting a 0.04M solution of N-[tris-(hydroxymethyl)methyl]-glycine buffered deionized water with concentrated sodium hydroxide to a pH of […]. Malt yeast agar is prepared by adding 3 g yeast extract and 45 g malt agar per liter of deionized water. The specific agar is dispensed in 30 ml aliquots into 25×200 mm test tubes, capped and autoclaved for 15 minutes at 115° C. The test tubes containing the agar are cooled in a water bath until the temperature of the agar is 48° C. Then, an appropriate amount of the one percent solution of the test compound is added (except in the controls where no compound is added) to the respective test tubes so that the final concentrations are 500, 250, 100, 50, 25, 10, 5, 2.5, 1.0 and zero parts per million of the test compound in the agar, thus having a known concentration of test compound dispersed therein. The contents of the test tubes are then transferred to respective petri plates. After drying for 24 hours, the petri plates containing nutrient agar are inoculated with bacteria and those containing malt yeast agar are inoculated with yeast and fungi.
(§2) The inoculation with bacteria is accomplished by using the following procedure. Twenty-four hour-cultures of each of the bacteria are prepared by incubating the respective bacteria in tubes containing nutrient broth for 24 hours at 30° C. in a shaker. Dilutions of each of the 24 hour-cultures are made so that nine separate suspensions (one for each of the nine test bacteria) are made, each containing 10^8 colony forming units (CFU) per ml of suspension of a particular bacteria. Aliquots of 0.3 ml of each of the bacterial suspensions are used to fill the individual wells of Steer's Replicator. For each microbial suspension, 0.3 ml was used to fill three wells (i.e., three wells of 0.3 ml each) so that for the nine different bacteria, 27 wells are filled. The Steer's Replicator is then used to inoculate both the neutral and alkaline pH nutrient agar petri plates.
(§3) The inoculated petri plates are incubated at 30° C. for 48 hours and then read to determine if the test compound which is incorporated into the agar prevented growth of the respective bacteria.
(§4) Table II lists the bacteria, yeast and fungi used in the MIC test described above along with their respective American Type Culture Collection (ATCC) identification numbers.
(§5) The following MIC and MEC antimicrobial tests, whose results are shown in Tables XIII-XVII, are performed using the same methods as described hereinabove.

[1] = tested on: Enterobacter aerogenes (Ea); assay: MIC in nutrient agar, Enterobacter aerogenes; type: cell-based, Enterobacter aerogenes ATCC 13048; conditions: Klebsiella aerogenes
Procedure: as §1, §2, §3, §4, §5

Escherichia coli (Ec) = assay: MIC in nutrient agar, Escherichia coli; type: cell-based, Escherichia coli ATCC 11229; conditions: Escherichia coli
Procedure: as §1, §2, §3, §4, §5

[2] = tested on: Klebsiella pneumoniae (Kp); assay: MIC in nutrient agar, Klebsiella pneumoniae; type: cell-based, Klebsiella pneumoniae ATCC 8308
Procedure: as §1, §2, §3, §4, §5

Proteus vulgaris (Pv) = assay: MIC in nutrient agar, Proteus vulgaris; type: cell-based, Proteus vulgaris ATCC 881
Procedure: as §1, §2, §3, §4, §5

[3] = tested on: Pseudomonas aeruginosa (PRD-10); assay: MIC in nutrient agar, Pseudomonas aeruginosa PRD-10; type: cell-based, Pseudomonas aeruginosa ATCC 15442; conditions: Pseudomonas aeruginosa
Procedure: as §1, §2, §3, §4, §5

[4] = tested on: Pseudomonas aeruginosa (Pa); assay: MIC in nutrient agar, Pseudomonas aeruginosa; type: cell-based, Pseudomonas aeruginosa ATCC 10145
Procedure: as §1, §2, §3, §4, §5

[5] = tested on: Salmonella choleraesuis (Sc); assay: MIC in nutrient agar, Salmonella choleraesuis; type: cell-based, Salmonella choleraesuis ATCC 10708; conditions: Salmonella enterica, CHOLERAESUIS
Procedure: as §1, §2, §3, §4, §5

[6] = tested on: Staphylococcus aureus (Sa); assay: MIC in nutrient agar, Staphylococcus aureus; type: cell-based, Staphylococcus aureus ATCC 6538; conditions: Staphylococcus aureus
Procedure: as §1, §2, §3, §4, §5

Aspergillus niger (An) = assay: MIC in malt yeast agar, Aspergillus niger; type: cell-based, Aspergillus niger ATCC 16404; conditions: read-out: Minimum Inhibitory Concentration, An
Procedure: as §1
(§6) The inoculation with the yeast and fungi is accomplished as follows. Cultures of yeast and fungi are incubated for seven days on malt yeast agar at 30° C. These cultures are used to prepare suspensions by the following procedure. A suspension of each organism is prepared by adding 10 ml of sterile saline and 10 microliters of octylphenoxy polyethoxy ethanol (TRITON® X-100, a trademark of Rohm & Haas Company) to the agar slant of yeast or fungi. The sterile saline/octylphenoxy polyethoxy ethanol solution is then agitated with a sterile swab to suspend the microorganism grown on the slant. Each resulting suspension is diluted into sterile saline (1 part suspension: 9 parts sterile saline). Aliquots of these dilutions are placed in individual wells of Steer's Replicator and petri plates inoculated as previously described. The petri plates are incubated at 30° C. and read after 48 hours for yeast and 72 hours for fungi.
as §4, §5

Candida albicans (Ca) = assay: MIC in malt yeast agar, Candida albicans; type: cell-based, Candida albicans ATCC 10231; conditions: read-out: Minimum Inhibitory Concentration, Ca
Procedure: as §1, §6, §4, §5

[7] = tested on: Penicillium chrysogenum (Pc); assay: MIC in malt yeast agar, Penicillium chrysogenum; type: cell-based, Penicillium chrysogenum ATCC 9480; conditions: read-out: Minimum Inhibitory Concentration, Pc
Procedure: as §1, §6, §4, §5

[8] = tested on: Saccharomyces cerevisiae (Sc); assay: MIC in malt yeast agar, Saccharomyces cerevisiae; type: cell-based, Saccharomyces cerevisiae ATCC 4105; conditions: read-out: Minimum Inhibitory Concentration, Sc
Procedure: as §1, §6, §4, §5

Trichoderma viride (Tv) = assay: MIC in malt yeast agar, Trichoderma viride; type: cell-based, Trichoderma viride ATCC 8678; conditions: read-out: Minimum Inhibitory Concentration, Tv
Procedure: as §1, §6, §4, §5

[9] = tested on: Aureobasidium pullulan (Ap); assay: MIC in malt yeast agar, Aureobasidium pullulan; type: cell-based, Aureobasidium pullulan ATCC 16622; conditions: read-out: Minimum Inhibitory Concentration, Ap
Procedure: as §1, §6, §4, §5

Fusarium oxysporum (Fo) = assay: MIC in malt yeast agar, Fusarium oxysporum; type: cell-based, Fusarium oxysporum ATCC 48112; conditions: read-out: Minimum Inhibitory Concentration, Fo
Procedure: as §1, §6, §4, §5

Bacteria Species = assay: MIC test in bacteria species, comparison over the organisms of Table XIV; type: cell-based, bacteria listed in Table II; conditions: pH 8.2
Procedure: The minimum inhibitory concentration (MIC) for the compounds listed in Table I is determined for 9 bacteria, using nutrient agar, and 7 yeast and fungi, using malt yeast agar. A one percent solution of the test compound is prepared in a mixture of acetone and water. Nutrient agar is prepared at pH 6.8, representing a neutral medium, and at pH 8.2, representing an alkaline medium. The nutrient agars are prepared by adding 23 g of nutrient agar to one-liter of deionized water. In addition, the alkaline medium is prepared by adjusting a 0.04M solution of N-[tris-(hydroxymethyl)methyl]-glycine buffered deionized water with concentrated sodium hydroxide to a pH of […]. Malt yeast agar is prepared by adding 3 g yeast extract and 45 g malt agar per liter of deionized water. The specific agar is dispensed in 30 ml aliquots into 25×200 mm test tubes, capped and autoclaved for 15 minutes at 115° C. The test tubes containing the agar are cooled in a water bath until the temperature of the agar is 48° C. […]
The inoculated petri plates are incubated at 30° C. for 48 hours and then read to determine if the test compound which is incorporated into the agar prevented growth of the respective bacteria. […]

[10] = Degradation of Z isomer to 3-methylthio-2-propynenitrile; type: physicochemical
From the text: It has also been discovered that the Z isomer of an appropriately-substituted 2-chloro-3-thio-2-propenenitrile precursor may degrade in situ to a like-substituted 3-thio-2-propynenitrile.

CS/C=C(\Cl)C#N [Compound I, Z isomer of 2-chloro-3-(methylthio)-2-propenenitrile]
MIC (Bacillus subtilis (Bs); pH 6.8, read-out: Minimum Inhibitory Concentration, Bs): 50 µg/mL (≈ 374 µM)
MIC (Bacillus subtilis (Bs); pH 8.2, read-out: Minimum Inhibitory Concentration, Bs): 10 µg/mL (≈ 74.8 µM)
MIC ([1]; pH 6.8, read-out: Minimum Inhibitory Concentration, Ea): 50 µg/mL (≈ 374 µM)
MIC ([1]; pH 8.2, read-out: Minimum Inhibitory Concentration, Ea): 10 µg/mL (≈ 74.8 µM)
MIC (Escherichia coli (Ec); pH 6.8, read-out: Minimum Inhibitory Concentration, Ec): 50 µg/mL (≈ 374 µM)
MIC (Escherichia coli (Ec); pH 8.2, read-out: Minimum Inhibitory Concentration, Ec): 10 µg/mL (≈ 74.8 µM)
MIC ([2]; pH 6.8, read-out: Minimum Inhibitory Concentration, Kp): 50 µg/mL (≈ 374 µM)
MIC ([2]; pH 8.2, read-out: Minimum Inhibitory Concentration, Kp): 10 µg/mL (≈ 74.8 µM)
MIC (Proteus vulgaris (Pv); pH 6.8, read-out: Minimum Inhibitory Concentration, Pv): 50 µg/mL (≈ 374 µM)
MIC (Proteus vulgaris (Pv); pH 8.2, read-out: Minimum Inhibitory Concentration, Pv): 5 µg/mL (≈ 37.4 µM)
MIC ([3]; pH 6.8, read-out: Minimum Inhibitory Concentration, PRD): 50 µg/mL (≈ 374 µM)
MIC ([3]; pH 8.2, read-out: Minimum Inhibitory Concentration, PRD): 10 µg/mL (≈ 74.8 µM)
MIC ([4]; pH 6.8, read-out: Minimum Inhibitory Concentration, Pa): 50 µg/mL (≈ 374 µM)
MIC ([4]; pH 8.2, read-out: Minimum Inhibitory Concentration, Pa): 10 µg/mL (≈ 74.8 µM)
MIC ([5]; pH 6.8, read-out: Minimum Inhibitory Concentration, Sc): 50 µg/mL (≈ 374 µM)
MIC ([5]; pH 8.2, read-out: Minimum Inhibitory Concentration, Sc): 10 µg/mL (≈ 74.8 µM)
MIC ([6]; pH 6.8, read-out: Minimum Inhibitory Concentration, Sa): 50 µg/mL (≈ 374 µM)
MIC ([6]; pH 8.2, read-out: Minimum Inhibitory Concentration, Sa): 10 µg/mL (≈ 74.8 µM)
MIC (Aspergillus niger (An)): 50 µg/mL (≈ 374 µM)
MIC (Candida albicans (Ca)): 100 µg/mL (≈ 748 µM)
MIC [7]: 50 µg/mL (≈ 374 µM)
MIC [8]: 100 µg/mL (≈ 748 µM)
MIC (Trichoderma viride (Tv)): 50 µg/mL (≈ 374 µM)
MIC [9]: 50 µg/mL (≈ 374 µM)
MIC (Fusarium oxysporum (Fo)): 100 µg/mL (≈ 748 µM)
antimicrobial activity compared with 3-methylthio-2-propynenitrile (Compound A) (Bacteria Species): essentially equivalent
antimicrobial activity relative to the E isomer (Compound H) (Bacteria Species): 25-50 times greater
half-life for the degradation of the Z isomer to 3-methylthio-2-propynenitrile ([10]; pH 7): approximately two
half-life for the degradation of the Z isomer to 3-methylthio-2-propynenitrile ([10]; pH 9): approximately two
